Assay [1] relates to HepG2 cells. The assay is described as follows: Accumulation of cholesterol precursors / C29-sterols (MAS) in HepG2 cells, GC/MS (SIM). The conditions noted are these: HepG2 cells; for Increases in FF-MAS / Increases in T-MAS: 1 µM, refers to Table 1; for Dienol (m/z 486) / Enol T-MAS (m/z 484) / Trienol FF-MAS (m/z 482): ± SD; for suppression of the Δ24 reduction step (accumulation of desmosterol): absence of miconazole, 10 µM potent inhibitors or 1 µM tamoxifen for 12 h. It is filed as cell-based, Human. How it is done:
(§1) Human hepatoma HepG2 cells were cultured to confluency in 60-mm dishes in phenol-red-free Dulbecco's modified Eagle's medium (DMEM) containing Pen-Strep (100 µg/ml), glucose (10 mM), sodium bicarbonate (45 mM) and glutamine (4 mM) supplemented with 10% fetal calf serum as described previously (24). At the beginning of the experiment the medium was changed to serum-free DMEM supplemented with 10% lipid-free "controlled process serum replacement" (CPSR-1). Compounds were added from ethanolic stock solutions to produce final ethanol concentrations of 0.1-0.3% v/v. Controls received the same amount of ethanol. Aminotriazole was added in an aqueous solution. Slices of rat testis (25 µm; 25-50 mg wet weight) were incubated under the same conditions in a shaking water bath (37°C). For isotopomer spectral analysis (ISA) of lathosterol, 1-^13C-acetate was added in an aqueous solution to a final concentration of 1 mM.
(§2) Cells were washed three times with ice cold PBS (pH 7.4) (once with 2 mg/ml BSA and twice with PBS alone). Epicoprostanol (1 µg in 50 µl of hexane) was added as internal standard to each sample. Sterols were extracted in hexane/isopropanol (3:2 v/v; two times with 4 ml). After drying under nitrogen and alkaline hydrolysis (1 N NaOH in 80% ethanol, 1.5 h at 70°C), the sterols were extracted with cyclohexane (two times with 3 ml). After drying under nitrogen, sterols were converted to their trimethylsilyl (TMS) derivatives by adding 100 µl bis(trimethylsilyl)trifluoracetamide (Pierce)/n-decane (1:1; v/v) and heating for 1 h at 70°C in a conical glass tube. This solution (1-2 µl) was used for gas-chromatography/mass-spectrometry (GC/MS). Rat testes (0.05-0.15 g) were homogenized manually, and lipids were extracted in hexane/isopropanol (3:2 v/v; two times with 4 ml). The extracts were deproteinized with acetone (3 ml) and processed as described above. The observed sterol levels in testis were normalized to correspond to 0.1 g of tissue (wet weight).
Gas-chromatography was done in the splitless mode with temperature programming as follows: 150°C for 1 min, followed by 20°C/min up to 260°C and 10°C/min up to 280°C (hold for 15 min). Mass spectral data were collected either in the full-scan mode (m/z 50-550) or by selective ion monitoring (SIM). For SIM analyses the electron multiplier voltage was raised by 300 V after the elution of lathosterol to increase the sensitivity of detection for lanosterol, dihydrolanosterol, methylsterols, dimethylsterols and plant sterols. The internal standard epicoprostanol was monitored at m/z 370. […] Peak integration was performed manually, and sterols were quantified from SIM analyses against the internal standard. Unless stated otherwise, MAS amounts are given as a percentage of the control.

A further assay deals with rat testis. Kind of assay: Levels of C29-sterols in rat testis slices, GC/MS (SIM). It is filed as cell-based, Sprague-Dawley rats. The settings on record: 9 h, n=3, ± SD. As for the experimental part: Unless specified otherwise, potent inhibitors, drugs, chemicals, and cell culture supplies were purchased from Sigma. T-MAS and FF-MAS were synthesized as reported recently (5) and used as reference compounds. 1-^13C-acetate was obtained from Cambridge Isotope Laboratories. Rat testes were obtained from Sprague-Dawley rats (weight <50g).
as §1, §2
(§3) Analyses were performed on a Hewlett-Packard GC/MS system (5890 series II GC interfaced to a 5971 mass selective detector) equipped with a DB-XLB column (30 m x 0.25 mm i.d. x 0.25 µm film; J&W). Gas-chromatography was done in the splitless mode with temperature programming as follows: 150°C for 1 min, followed by 20°C/min up to 260°C and 10°C/min up to 280°C (hold for 15 min). Mass spectral data were collected either in the full-scan mode (m/z 50-550) or by selective ion monitoring (SIM). For SIM analyses the electron multiplier voltage was raised by 300 V after the elution of lathosterol to increase the sensitivity of detection for lanosterol, dihydrolanosterol, methylsterols, dimethylsterols and plant sterols. The internal standard epicoprostanol was monitored at m/z 370. In unlabeled experiments, cholesterol precursors and plant sterols were monitored by the following ions: desmosterol (m/z 456; 441 and 351); Δ8-cholestenol (m/z 458); lathosterol (m/z 458); monounsaturated methylsterols (m/z 472); diunsaturated methylsterols (m/z 470); monounsaturated dimethylsterols (m/z 486); diunsaturated dimethylsterols (m/z 484); triunsaturated dimethylsterols (m/z 482); lanosterol (m/z 498 and 393) and dihydrolanosterol (m/z 500 and 395). Peak integration was performed manually, and sterols were quantified from SIM analyses against the internal standard. Unless stated otherwise, MAS amounts are given as a percentage of the control. When 1-^13C-acetate was used in the culture medium for ISA, up to 10 ions (M+0- M+10) were monitored for the TMS derivatives of lathosterol (m/z 458-468), T-MAS (m/z 484-494) and FF-MAS (m/z 482-492).

In a further assay the target is T1, Δ24-reductase (Homo sapiens, UniProt Q15392).
T1 construct: endogenous in cells; host or cells: HepG2
T1 sequence (Q15392 23-516): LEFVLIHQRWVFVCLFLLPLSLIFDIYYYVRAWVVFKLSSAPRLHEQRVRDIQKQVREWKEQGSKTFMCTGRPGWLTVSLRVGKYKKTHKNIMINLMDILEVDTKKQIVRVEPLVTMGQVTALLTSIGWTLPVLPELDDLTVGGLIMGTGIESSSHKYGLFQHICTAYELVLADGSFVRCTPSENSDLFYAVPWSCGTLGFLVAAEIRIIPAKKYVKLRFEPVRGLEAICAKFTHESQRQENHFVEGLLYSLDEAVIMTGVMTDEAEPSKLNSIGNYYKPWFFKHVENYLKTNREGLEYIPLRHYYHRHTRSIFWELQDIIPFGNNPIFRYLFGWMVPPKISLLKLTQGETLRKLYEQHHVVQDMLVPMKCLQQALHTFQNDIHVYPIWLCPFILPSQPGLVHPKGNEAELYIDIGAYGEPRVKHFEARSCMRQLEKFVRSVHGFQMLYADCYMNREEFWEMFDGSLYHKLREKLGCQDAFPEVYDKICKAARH
The assay is described as follows: Δ24-reductase assay (conversion of lanosterol to dihydrolanosterol in the presence of miconazole). The conditions noted are these: HepG2 cells; conversion of lanosterol to dihydrolanosterol with added miconazole. The class given is cell-based. As for the experimental part:
HepG2 cells were incubated for 12 h with 10 µM simvastatin (a kind gift from M. Stapff (MSD, Germany)) to deplete cholesterol precursors. Thereafter, the medium was changed to one containing 10 µM simvastatin, 10 µM miconazole (an inhibitor of 14α-demethylation) and 6 µg/dish lanosterol. After 12 h incubation, neutral sterols were extracted as described above, and the samples were monitored for lanosterol (m/z 498 (M^+) and m/z 393 (M-TMSOH-CH3)) and dihydrolanosterol (m/z 500 (M^+) and m/z 395 (M-TMSOH-CH3)) by GC/MS. Dihydrolanosterol was quantified by comparing the ratio of SIM abundances at m/z 395 and 370 (epicoprostanol) against a standard curve constructed from SIM results on mixtures of authentic dihydrolanosterol and epicoprostanol. Desmosterol was quantified analogously by SIM.

In assay [2] the test system is HepG2 cells. The assay is described as follows: Isotopomer spectral analysis (ISA) of flux of 13C-acetate to lathosterol and cholesterol. It is filed as cell-based, Human. The conditions noted are these: 10 µM, 12 h, 1 mM 1-13C-acetate. As for the experimental part:
as §1, §3
ISA was carried out as described previously (25) by incubating cells with 1-13C-acetate. The isotopomer distribution in sterols synthesized from 1-^13C-acetate provided the fractional synthesis rate g(t) of the product and the enrichment D of the labeled precursor pool. These parameters were calculated by nonlinear regression analysis as described previously (25,26). Because here we used the molecular ions containing the TMS group for the ISA calculations, the ISA program was modified to correct for the additional C, H and Si atoms from the derivatization reagent. Statistical differences were assessed by Student's t-test and considered significant for P<0.05.

[3] abbreviates: Conc. 1 µM (combinations 1 + 1 µM), 24 h, n=3.
Where [4] appears, read: Conc. 10 µM (combinations 10 + 10 µM), 12 h, n=2.
[5] abbreviates: Conc. 10 µM (combination 10 + 10 µM).
The mark [6] stands for this setting: 12-h incubation with 10 µM, n=3 incubations.

Here are results for three molecules from patent publication EP1216701A1, “Process to increase the concentration of meiosis-activating sterols (MAS) in the cholesterol synthesis and the use of potent inhibitors in the process” (Schering Aktiengesellschaft, priority 2000, dated 2002).

Consider `CC(=O)[C@@]1(O)CC[C@H]2[C@@H]3CCC4=CC(=O)CC[C@]4(C)[C@H]3CC[C@@]21C` [17α-OH-Progesterone, 17α-Hydroxy-progesterone], for which, in the assay on HepG2 cells [1], the “Increases in FF-MAS” value is given as 4 fold, the “Increases in T-MAS” value is on record as 9 fold and the “suppression of the Δ24 reduction step (accumulation of desmosterol)” value (shortened to “suppression of the Δ24 reduction step”) is reported as “not”. In the assay with HepG2 cells [1] (setting [3]), the “Dienol (m/z 486)” value is 246 ± 26 % of control, the “Enol T-MAS (m/z 484)” value is 162 ± 15 % of control and the “Trienol FF-MAS (m/z 482)” value is listed as 120 ± 14 % of control. Also, in the assay on HepG2 cells [1] (setting [4]), the “Dienol (m/z 486)” value is 2384 ± 236 % of control, the “Enol T-MAS (m/z 484)” value was 2003 ± 201 % of control and the “Trienol FF-MAS (m/z 482)” value was 406 ± 52 % of control. For the same molecule, in the assay with rat testis (setting [5]), the “Dienol (m/z 486)” value is 199 ± 19 % of control, the “Enol T-MAS (m/z 484)” value was 201 ± 26 % of control and the “Trienol FF-MAS (m/z 482)” value is reported as 171 ± 8 % of control. For the same molecule, in the assay with rat testis (Conc. 20 µM), the “Dienol (m/z 486)” value is 223 ± 25 % of control, the “Enol T-MAS (m/z 484)” value is 225 ± 22 % of control and the “Trienol FF-MAS (m/z 482)” value is reported as 240 ± 40 % of control. Besides, the “order of suppression of Δ24 reduction” value at Δ24-reductase was “pregnenolone > progesterone > 17α-OH-pregnenolone >> 17α-OH-progesterone”. In the assay with HepG2 cells [2], the “lowering of the total amount of lathosterol” value (shortened to “lowering”) is “ca. 50%” and the “reduction of de novo lathosterol synthesis” value was “more than 60%”.

For `CC(=O)[C@H]1CC[C@H]2[C@@H]3CC=C4C[C@@H](O)CC[C@]4(C)[C@H]3CC[C@]12C` [Pregnenolone], in the assay on HepG2 cells [1] (setting [3]), the “Dienol (m/z 486)” value is on record as 110 ± 9 % of control, the “Enol T-MAS (m/z 484)” value was 223 ± 11 % of control and the “Trienol FF-MAS (m/z 482)” value is recorded as 166 ± 28 % of control. In the assay with HepG2 cells [1] (setting [4]), the “Dienol (m/z 486)” value is recorded as 4 ± 1 % of control, the “Enol T-MAS (m/z 484)” value is recorded as 308 ± 40 % of control and the “Trienol FF-MAS (m/z 482)” value is 213 ± 15 % of control. Also, in the assay on HepG2 cells [1], the “suppression of the Δ24 reduction step” value is “strongly suppressed”. Also, the “order of suppression of Δ24 reduction” value at Δ24-reductase is given as “pregnenolone > progesterone > 17α-OH-pregnenolone >> 17α-OH-progesterone”. In the assay on HepG2 cells [2], the “lowering” value was “ca. 50%” and the “reduction of de novo lathosterol synthesis” value is on record as “more than 60%”.

As for `CC(=O)[C@H]1CC[C@H]2[C@@H]3CCC4=CC(=O)CC[C@]4(C)[C@H]3CC[C@]12C` [Progesterone], in the assay with HepG2 cells [1], the “Increases in FF-MAS” value was 4 fold, the “Increases in T-MAS” value came out at 9 fold and the “suppression of the Δ24 reduction step” value is “strongly suppressed”. In addition, the “desmosterol as share of the cholesterol content of the cells” value in the assay with HepG2 cells [1] (12-h incubation with 10 µM) is listed as 2.1%. Besides, in the assay on HepG2 cells [1] (setting [6]), the cholesterol amounted to 269 ± 3 µg and the desmosterol was 5.7 ± 0.07 µg. Moreover, in the assay on HepG2 cells [1] (setting [3]), the “Dienol (m/z 486)” value was 77 ± 9 % of control and the “Enol T-MAS (m/z 484)” value is 192 ± 41 % of control. In the assay with HepG2 cells [1] (setting [4]), the “Dienol (m/z 486)” value is 26 ± 3 % of control, the “Enol T-MAS (m/z 484)” value is on record as 1000 ± 106 % of control and the “Trienol FF-MAS (m/z 482)” value is given as 3335 ± 397 % of control. For the same molecule, in the assay on rat testis (setting [5]), the “Dienol (m/z 486)” value is listed as 109 ± 1 % of control, the “Enol T-MAS (m/z 484)” value is 107 ± 1 % of control and the “Trienol FF-MAS (m/z 482)” value was 336 ± 12 % of control. In the assay on rat testis (Conc. 20 µM), the “Dienol (m/z 486)” value is reported as 103 ± 14 % of control, the “Enol T-MAS (m/z 484)” value is reported as 129 ± 10 % of control and the “Trienol FF-MAS (m/z 482)” value is given as 487 ± 37 % of control. Further, the “order of suppression of Δ24 reduction” value on Δ24-reductase is “pregnenolone > progesterone > 17α-OH-pregnenolone >> 17α-OH-progesterone”. For the same molecule, in the assay with HepG2 cells [2], the “lowering” value is reported as “ca. 50%” and the “reduction of de novo lathosterol synthesis” value is on record as “more than 60%”.
